Data as given in EPA's ToxValDB 9.5.

System: Mus musculus
Conditions: oral
[1] = short-term, duration: 21 days, gavage, M, BALB/c, spleen: lymphocyte proliferation (ConA)
[2] = short-term, duration: 21 days, gavage, M, BALB/c, spleen: spleen CD3+ cells + spleen: spleen CD3+CD4+ cells + spleen: spleen CD3+CD8+ cells + spleen: spleen: relative weight
[3] = short-term, duration: 28 days, gavage, F, B6C3F1, IgM antibody-producing cells (SRBC)
[4] = short-term, duration: 28 days, gavage, F, B6C3F1, peritoneal cavity: IL-6 levels (+LPS in vivo) + peritoneal cavity: TNF-alpha levels (+LPS in vitro) + spleen: spleen: relative weight
[5] = short-term, duration: 28 days, gavage, F, B6C3F1, serum lysozyme activity + spleen: splenic CD4-/CD8+ + spleen: splenic CD4+/CD8-
[6] = short-term, duration: 28 days, gavage, F, B6C3F1, spleen (B cells): IL-6 levels (+LPS)
[7] = short-term, duration: 28 days, gavage, F, B6C3F1, thymus: thymic CD4+/CD8+
[8] = short-term, duration: 28 days, gavage, M, B6C3F1, IgM antibody-producing cells (SRBC)
[9] = short-term, duration: 28 days, gavage, M, B6C3F1, spleen: Splenic NK cell activity
[10] = short-term, duration: 28 days, gavage, M, B6C3F1, spleen: splenic CD4-/CD8- + spleen: splenic CD4-/CD8+ + spleen: splenic CD4+/CD8- + spleen: splenic CD4+/CD8+
[11] = subchronic, duration: 30 days, gavage, M, C57BL/6, spleen: spleen: relative weight
[12] = subchronic, duration: 60 days, gavage, M, C57BL/6, % of sub G1 population (splenocytes) + spleen: apoptotic cells (splenocytes) + spleen: viability in murine splenocytes + thymus: apoptotic …
[13] = subchronic, duration: 60 days, gavage, M, C57BL/6, % of sub G1 population (thymocytes) + body weight change + spleen: necrotic cells (splenocytes) + spleen: spleen cellularity + spleen: …
[14] = subchronic, duration: 60 days, gavage, M, C57BL/6, IgM antibody titer (SRBC) + spleen: IL-4 levels
[15] = subchronic, duration: 60 days, gavage, M, C57BL/6, blood serum: IL-1 beta (+LPS in vivo) + blood serum: IL-1 beta levels + blood serum: IL-6 levels + peritoneal cavity: IL-1 beta levels (+LPS…
[16] = subchronic, duration: 60 days, gavage, M, C57BL/6, blood serum: IL-6 levels (+LPS in vivo) + blood serum: TNF-alpha levels (+LPS in vivo) + peritoneal cavity: IL-6 levels (+LPS in vivo) + …
[17] = subchronic, duration: 60 days, gavage, M, C57BL/6, body weight change + food intake from day 60 to 61 + IgE antibody titer (SRBC) + IgG antibody titer (SRBC) + IgG1 antibody titer (SRBC) + …
[18] = subchronic, duration: 60 days, gavage, M, C57BL/6, body weight change + peritoneal cavity: IL-6 levels + peritoneal cavity: IL-6 levels (+LPS in vitro) + peritoneal cavity: TNF-alpha levels…
[19] = subchronic, duration: 60 days, gavage, M, C57BL/6, liver: liver index
[20] = subchronic, duration: 60 days, gavage, M, C57BL/6, peritoneal cavity: IL-1 beta levels
[21] = subchronic, duration: 60 days, gavage, M, C57BL/6, serum corticosterone + spleen: lymphocyte proliferation (LPS) + spleen: spleen B220+ Cells + spleen: spleen CD8+ cells + thymus: thymus CD4…
[22] = subchronic, duration: 60 days, gavage, M, C57BL/6, spleen: lymphocyte proliferation (ConA) + thymus: thymus DN (CD4-/CD8-)

O=S(=O)(O)C(F)(F)C(F)(F)C(F)(F)C(F)(F)C(F)(F)C(F)(F)C(F)(F)C(F)(F)F [Perfluorooctanesulfonic acid]
NOEL (short-term, duration: 21 days, gavage, F, B6C3F1, Survival rate (influenza A infection)): 0.005 mg/kg-day | NOEL (short-term, duration: 21 days, gavage, F, B6C3F1, body weight + body weight during influenza A infection (day 41, 20 days after infection) + spleen: spleen: relative weight + Survival time (…): 0.025 mg/kg-day | LOEL (short-term, duration: 21 days, gavage, F, B6C3F1, body weight during influenza A infection (day 30, 9 days after infection)): 0.005 mg/kg-day | LOEL [1]: 5 mg/kg-day | NOEL [1]: 2.5 mg/kg-day | LOEL (short-term, duration: 21 days, gavage, M, BALB/c, spleen: spleen CD3+ cells (cells normalized to control) + spleen: spleen CD3+CD4+ cells (cells normalized to control) + spleen: spleen CD3+…): 2.5 mg/kg-day | NOEL (short-term, duration: 21 days, gavage, M, BALB/c, spleen: spleen CD3+ cells + spleen: spleen CD3+CD4+ cells (cells normalized to control) + spleen: spleen CD3+CD8+ cells (cells normalized to…): 10 mg/kg-day | LOEL [2]: 10 mg/kg-day | NOEL [2]: 5 mg/kg-day | LOEL (short-term, duration: 28 days, diet, M, B6C3F1, corticosterone): 0.000156% | NOEL (short-term, duration: 28 days, diet, M, B6C3F1, haemagglutination + IgG antibody level (SRBC 1:200) + IgM antibody-secreting cells (SRBC) + IgM antibody level (SRBC 1:200) + IgM antibody …): 0.000156% | NOEL (short-term, duration: 28 days, diet, M, C57BL/6, liver: IFN-gamma levels + liver: IFN-gamma levels (+Con A in vivo) + liver: IL-4 levels (+Con A in vivo) + liver: TNF-alpha levels + liver: …): 0.0001% | NOEL (short-term, duration: 28 days, gavage, F, B6C3F1, IL-4 levels (+PMA) + spleen (CD4+ T cells): IL-5 levels (+PMA) + spleen (CD4+ T cells): IL-6 levels (+anti-CD3) + spleen (CD4+ T cells): IL-…): 0.0331 mg/kg-day | LOEL (TAD) [3]: 0.5 mg/kg-day | NOEL (TAD) [3]: 0.1 mg/kg-day | LOEL (short-term, duration: 28 days, gavage, F, B6C3F1, blood serum: IL-6 levels (+LPS in vivo) + blood serum: TNF-alpha levels (+LPS in vivo)): 0.0331 mg/kg-day | NOEL (short-term, duration: 28 days, gavage, F, B6C3F1, eosinophils + lymphocytes + monocytes + neutrophils + platelet count + RBC + spleen: cells expressing CD19-/CD21+ + spleen: cells expressing…): 0.166 mg/kg-day | NOEL (short-term, duration: 28 days, gavage, F, B6C3F1, peritoneal cavity: IL-6 levels (+LPS in vitro) + peritoneal cavity: IL-6 levels (+LPS in vivo) + peritoneal cavity: TNF-alpha levels (+LPS …): 9.93 mg/kg-day | LOEL [4]: 9.93 mg/kg-day | NOEL [4]: 0.0993 mg/kg-day | LOEL (TAD) [5]: 0.1 mg/kg-day | NOEL (TAD) [5]: 0.05 mg/kg-day | LOEL [6]: 0.0331 mg/kg-day | NOEL [6]: 0.00331 mg/kg-day | LOEL (short-term, duration: 28 days, gavage, F, B6C3F1, spleen (B cells): IL-6 levels (+anti-CD40)): 0.00331 mg/kg-day | NOEL (short-term, duration: 28 days, gavage, F, B6C3F1, spleen: IL-6 secreting cells (# splenocytes)): 0.0331 mg/kg-day | LOEL (short-term, duration: 28 days, gavage, F, B6C3F1, spleen: IL-6 secreting cells (# splenocytes) + spleen: IL-6 secreting cells (% splenocytes)): 0.0993 mg/kg-day | NOEL (TAD) (short-term, duration: 28 days, gavage, F, B6C3F1, spleen: lymphocyte proliferation (ConA) + spleen: lymphocyte proliferation (LPS) + spleen: spleen cellularity + spleen: spleen: relative …): 5 mg/kg-day | LOEL (TAD) [7]: 1 mg/kg-day | NOEL (TAD) [7]: 0.5 mg/kg-day | LOEL (TAD) [8]: 0.05 mg/kg-day | NOEL (TAD) [8]: 0.005 mg/kg-day | NOEL (TAD) (short-term, duration: 28 days, gavage, M, B6C3F1, serum lysozyme activity + spleen: lymphocyte proliferation (ConA) + spleen: lymphocyte proliferation (LPS) + spleen: spleen cellularity + …): 5 mg/kg-day | LOEL (TAD) [9]: 0.5 mg/kg-day | NOEL (TAD) [9]: 0.1 mg/kg-day | LOEL (TAD) [10]: 0.1 mg/kg-day | NOEL (TAD) [10]: 0.05 mg/kg-day | LOEL (TAD) [11]: 300 mg/kg-day | NOEL (TAD) [11]: 150 mg/kg-day | LOEL [12]: 0.0833 mg/kg-day | NOEL [12]: 0.0167 mg/kg-day | LOEL [13]: 0.833 mg/kg-day | NOEL [13]: 0.0833 mg/kg-day | NOEL (subchronic, duration: 60 days, gavage, M, C57BL/6, DTH response + IgG2a antibody titer (SRBC) + kidney: kidney index + serum corticosterone): 0.833 mg/kg-day | LOEL [14]: 0.0833 mg/kg-day | NOEL [14]: 0.0167 mg/kg-day | LOEL (subchronic, duration: 60 days, gavage, M, C57BL/6, IgM antibody-secreting cells (SRBC) + Splenic NK cell activity): 0.0833 mg/kg-day | NOEL (subchronic, duration: 60 days, gavage, M, C57BL/6, IgM antibody-secreting cells (SRBC) + spleen: spleen DP (CD4+/CD8+) + Splenic NK cell activity): 0.00833 mg/kg-day | LOEL [15]: 0.833 mg/kg-day | NOEL [15]: 0.417 mg/kg-day | LOEL [16]: 2.08 mg/kg-day | NOEL [16]: 0.833 mg/kg-day | NOEL (subchronic, duration: 60 days, gavage, M, C57BL/6, blood serum: TNF-alpha levels): 2.08 mg/kg-day | LOEL [17]: 0.833 mg/kg-day | NOEL [17]: 0.417 mg/kg-day | LOEL [18]: 0.417 mg/kg-day | NOEL [18]: 0.0833 mg/kg-day | LOEL [19]: 0.417 mg/kg-day | NOEL [19]: 0.0833 mg/kg-day | LOEL (subchronic, duration: 60 days, gavage, M, C57BL/6, peritoneal cavity macrophages): 0.0167 mg/kg-day | NOEL (subchronic, duration: 60 days, gavage, M, C57BL/6, peritoneal cavity macrophages + spleen: IL-1 beta mRNA): 0.0083 mg/kg-day | LOEL [20]: 0.0833 mg/kg-day | NOEL [20]: 0.0167 mg/kg-day | LOEL [21]: 0.833 mg/kg-day | NOEL [21]: 0.417 mg/kg-day | LOEL [22]: 2.08 mg/kg-day | NOEL [22]: 0.833 mg/kg-day | LOEL (subchronic, duration: 60 days, gavage, M, C57BL/6, spleen: spleen CD4+ cells + spleen: spleen cellularity + spleen: spleen DN (CD4-/CD8-) + spleen: spleen DP (CD4+/CD8+) + spleen: spleen: …): 0.417 mg/kg-day | NOEL (subchronic, duration: 60 days, gavage, M, C57BL/6, spleen: spleen CD4+ cells + spleen: spleen cellularity + spleen: spleen DN (CD4-/CD8-) + spleen: spleen: relative weight + thymus: thymus …): 0.0833 mg/kg-day
